In BindingDB's records for doi:10.1016/j.bmcl.2016.03.041 (Eli Lilly, 2016) one finds Ki data, which are given here for one molecule.

Assay [1] addresses T1, Prostaglandin E2 receptor EP1 subtype (Homo sapiens, UniProt P34995).
T1 sequence (P34995 whole entry): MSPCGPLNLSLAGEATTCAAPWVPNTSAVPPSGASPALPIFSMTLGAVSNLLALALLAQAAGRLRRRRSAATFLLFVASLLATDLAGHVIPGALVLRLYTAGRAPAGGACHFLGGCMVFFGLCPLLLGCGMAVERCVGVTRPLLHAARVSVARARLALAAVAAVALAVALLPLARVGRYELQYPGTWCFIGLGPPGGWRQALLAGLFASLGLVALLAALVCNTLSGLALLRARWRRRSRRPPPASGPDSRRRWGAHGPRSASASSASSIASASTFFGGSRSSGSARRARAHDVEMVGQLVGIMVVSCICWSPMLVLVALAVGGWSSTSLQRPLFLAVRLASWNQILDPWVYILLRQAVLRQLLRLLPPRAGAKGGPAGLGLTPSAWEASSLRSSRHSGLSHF
The assay is described as follows: Binding affinity to human EP1.

The target of assay [2] is T2, Prostaglandin E2 receptor EP3 subtype (Homo sapiens, UniProt P43115).
T2 sequence (P43115 whole entry): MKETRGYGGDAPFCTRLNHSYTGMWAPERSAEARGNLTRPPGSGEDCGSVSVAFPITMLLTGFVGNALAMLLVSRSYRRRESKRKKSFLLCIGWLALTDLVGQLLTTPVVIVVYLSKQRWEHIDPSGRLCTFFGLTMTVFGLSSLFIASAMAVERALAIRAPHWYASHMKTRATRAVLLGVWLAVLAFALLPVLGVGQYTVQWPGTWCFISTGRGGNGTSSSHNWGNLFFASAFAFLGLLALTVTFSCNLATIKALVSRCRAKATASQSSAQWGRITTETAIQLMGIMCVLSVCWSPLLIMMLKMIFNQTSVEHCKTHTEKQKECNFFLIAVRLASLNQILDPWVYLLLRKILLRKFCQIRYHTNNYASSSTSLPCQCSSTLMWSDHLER
The assay is described as follows: Binding affinity to human EP3.

Assay [3] has as its target Prostaglandin E2 receptor EP2 subtype (Homo sapiens, UniProt P43116). The experiment in a line: Binding affinity to human EP2.

Chain of Prostaglandin E2 receptor EP2 subtype (P43116 whole entry): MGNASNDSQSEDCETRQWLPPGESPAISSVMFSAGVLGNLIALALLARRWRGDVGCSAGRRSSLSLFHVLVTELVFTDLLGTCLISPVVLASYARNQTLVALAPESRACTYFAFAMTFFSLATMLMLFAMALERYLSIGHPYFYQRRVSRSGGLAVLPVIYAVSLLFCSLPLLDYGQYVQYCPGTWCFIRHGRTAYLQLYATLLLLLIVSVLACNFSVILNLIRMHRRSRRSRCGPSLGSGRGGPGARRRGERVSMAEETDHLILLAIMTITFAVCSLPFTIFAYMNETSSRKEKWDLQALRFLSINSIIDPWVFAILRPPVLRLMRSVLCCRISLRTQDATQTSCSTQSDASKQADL

As for `Cc1ccc(N2CCC(O)CC2)nc1C(=O)Nc1c(C)cc(C(=O)O)cc1C` [US8933099, 1], the Ki (commonly the equilibrium dissociation constant of an inhibitor or competing ligand from its target) in assay [1] is over 17.5 µM; in assay [2], over 14 µM; in assay [3], over 18.9 µM.
